In BindingDB's records for PubMed 9336327 (Preclinical R & D, Astra Arcus, 1997):

Tests used:
[1] = target: Beta-2 adrenergic receptor (Rattus norvegicus, UniProt P10608)
[2] = target: Gamma-aminobutyric acid receptor subunit alpha-1 (Rattus norvegicus, UniProt P62813)
Galanin peptides = target: T1, Galanin peptides (Rattus norvegicus, UniProt P10683)
T1 sequence (P10683 whole entry): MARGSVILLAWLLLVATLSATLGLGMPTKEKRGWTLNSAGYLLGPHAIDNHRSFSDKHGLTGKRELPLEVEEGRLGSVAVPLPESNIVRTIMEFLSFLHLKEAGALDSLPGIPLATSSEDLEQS

[3] = target: Glutamate receptor ionotropic, NMDA 1 (Rattus norvegicus, UniProt P35439)
D(1A) dopamine receptor = D(1A) dopamine receptor (Rattus norvegicus, UniProt P18901)
Chain of D(1A) dopamine receptor (P18901 whole entry): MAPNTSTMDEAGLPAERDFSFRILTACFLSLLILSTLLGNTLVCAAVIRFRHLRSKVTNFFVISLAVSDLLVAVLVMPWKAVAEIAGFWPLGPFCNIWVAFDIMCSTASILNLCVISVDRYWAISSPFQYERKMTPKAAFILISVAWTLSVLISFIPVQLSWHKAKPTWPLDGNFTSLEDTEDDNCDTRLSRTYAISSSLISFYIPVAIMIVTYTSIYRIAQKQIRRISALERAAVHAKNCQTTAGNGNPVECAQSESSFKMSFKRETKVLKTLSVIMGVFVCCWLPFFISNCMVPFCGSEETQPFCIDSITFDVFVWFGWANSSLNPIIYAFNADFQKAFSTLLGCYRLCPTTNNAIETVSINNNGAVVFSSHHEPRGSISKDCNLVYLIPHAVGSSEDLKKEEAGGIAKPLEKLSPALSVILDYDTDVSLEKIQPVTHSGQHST

[4] = target: T2, Alpha-2C adrenergic receptor (Rattus norvegicus, UniProt P22086)
T2 sequence (P22086 whole entry): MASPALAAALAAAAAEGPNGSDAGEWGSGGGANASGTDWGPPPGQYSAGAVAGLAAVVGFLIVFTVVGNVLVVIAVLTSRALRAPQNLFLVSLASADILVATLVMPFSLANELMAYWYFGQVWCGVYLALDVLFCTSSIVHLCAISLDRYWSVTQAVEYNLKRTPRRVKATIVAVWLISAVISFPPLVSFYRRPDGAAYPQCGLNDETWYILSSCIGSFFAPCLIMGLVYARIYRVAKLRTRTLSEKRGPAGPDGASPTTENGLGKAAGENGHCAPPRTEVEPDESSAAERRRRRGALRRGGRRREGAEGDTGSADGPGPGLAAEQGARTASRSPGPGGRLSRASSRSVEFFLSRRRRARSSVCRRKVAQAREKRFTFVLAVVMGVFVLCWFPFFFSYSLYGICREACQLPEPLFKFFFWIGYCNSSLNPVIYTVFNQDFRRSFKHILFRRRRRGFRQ

Glutamate receptor 3 = Glutamate receptor 3 (Rattus norvegicus, UniProt P19492)
Chain of Glutamate receptor 3 (P19492 whole entry): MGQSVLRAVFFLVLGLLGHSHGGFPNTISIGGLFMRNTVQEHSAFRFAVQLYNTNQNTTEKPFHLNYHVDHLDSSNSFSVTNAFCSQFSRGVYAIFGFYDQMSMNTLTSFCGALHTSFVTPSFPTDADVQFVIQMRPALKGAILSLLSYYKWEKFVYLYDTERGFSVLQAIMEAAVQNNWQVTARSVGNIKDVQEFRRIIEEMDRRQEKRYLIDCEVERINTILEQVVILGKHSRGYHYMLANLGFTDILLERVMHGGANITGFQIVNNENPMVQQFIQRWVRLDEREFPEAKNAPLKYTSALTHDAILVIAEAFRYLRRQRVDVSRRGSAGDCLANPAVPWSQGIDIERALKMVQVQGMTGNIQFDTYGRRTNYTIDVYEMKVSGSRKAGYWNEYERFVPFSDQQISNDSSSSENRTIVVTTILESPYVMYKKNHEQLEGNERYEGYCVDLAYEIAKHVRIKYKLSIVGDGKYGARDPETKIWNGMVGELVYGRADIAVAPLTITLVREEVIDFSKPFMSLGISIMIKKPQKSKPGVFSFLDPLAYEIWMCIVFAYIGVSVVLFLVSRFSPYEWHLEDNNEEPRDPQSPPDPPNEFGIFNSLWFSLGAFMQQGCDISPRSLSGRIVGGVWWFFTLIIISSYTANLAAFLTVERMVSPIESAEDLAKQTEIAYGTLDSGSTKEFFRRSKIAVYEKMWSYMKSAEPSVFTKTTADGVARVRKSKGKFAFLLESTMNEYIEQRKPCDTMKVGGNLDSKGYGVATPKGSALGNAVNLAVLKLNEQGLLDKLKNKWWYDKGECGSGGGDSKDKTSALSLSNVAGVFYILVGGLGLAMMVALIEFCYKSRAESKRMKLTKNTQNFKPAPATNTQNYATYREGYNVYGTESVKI

[5] = target: 5-hydroxytryptamine receptor 6 (Rattus norvegicus, UniProt P31388)
Chain of 5-hydroxytryptamine receptor 6 (P31388 whole entry): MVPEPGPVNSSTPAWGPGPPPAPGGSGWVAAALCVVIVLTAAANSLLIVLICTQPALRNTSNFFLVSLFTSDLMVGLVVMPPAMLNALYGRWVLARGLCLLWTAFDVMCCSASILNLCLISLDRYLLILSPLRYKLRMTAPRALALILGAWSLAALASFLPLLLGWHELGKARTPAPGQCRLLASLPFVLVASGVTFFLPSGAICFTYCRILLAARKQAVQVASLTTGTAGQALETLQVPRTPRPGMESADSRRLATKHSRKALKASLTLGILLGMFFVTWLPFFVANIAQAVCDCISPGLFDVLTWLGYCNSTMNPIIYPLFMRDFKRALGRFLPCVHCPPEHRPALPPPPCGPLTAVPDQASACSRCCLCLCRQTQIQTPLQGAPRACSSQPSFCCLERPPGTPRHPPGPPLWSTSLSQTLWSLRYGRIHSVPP

[6] = target: T3, 5-hydroxytryptamine receptor 1A (Rattus norvegicus, UniProt P19327)
T3 sequence (P19327 whole entry): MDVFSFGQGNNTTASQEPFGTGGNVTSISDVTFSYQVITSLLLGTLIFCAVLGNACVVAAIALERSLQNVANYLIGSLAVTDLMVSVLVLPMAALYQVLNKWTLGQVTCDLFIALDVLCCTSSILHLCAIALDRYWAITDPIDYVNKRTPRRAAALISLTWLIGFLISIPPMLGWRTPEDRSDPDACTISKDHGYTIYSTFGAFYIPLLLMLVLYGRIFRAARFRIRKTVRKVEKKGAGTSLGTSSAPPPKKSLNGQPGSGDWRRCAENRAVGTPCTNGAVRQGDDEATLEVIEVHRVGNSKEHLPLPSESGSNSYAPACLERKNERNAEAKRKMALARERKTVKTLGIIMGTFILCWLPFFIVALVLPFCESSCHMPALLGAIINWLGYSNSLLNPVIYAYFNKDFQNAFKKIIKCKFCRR

[7] = target: T4, Muscarinic acetylcholine receptor M2 (Rattus norvegicus, UniProt P10980)
T4 sequence (P10980 whole entry): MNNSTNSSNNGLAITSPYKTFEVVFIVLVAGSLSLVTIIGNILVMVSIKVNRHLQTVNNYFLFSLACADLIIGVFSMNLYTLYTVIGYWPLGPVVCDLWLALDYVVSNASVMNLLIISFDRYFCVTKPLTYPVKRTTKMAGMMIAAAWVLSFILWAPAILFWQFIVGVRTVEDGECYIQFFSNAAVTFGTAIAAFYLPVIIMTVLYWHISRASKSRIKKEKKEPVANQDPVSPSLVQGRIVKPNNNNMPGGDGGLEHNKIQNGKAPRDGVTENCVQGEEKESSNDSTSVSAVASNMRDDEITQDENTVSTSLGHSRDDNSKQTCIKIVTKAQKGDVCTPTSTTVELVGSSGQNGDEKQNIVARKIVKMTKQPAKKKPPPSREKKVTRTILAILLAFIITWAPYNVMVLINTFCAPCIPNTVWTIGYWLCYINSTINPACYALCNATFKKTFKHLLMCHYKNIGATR

[8] = target: T5, Alpha-1A adrenergic receptor (Rattus norvegicus, UniProt P43140)
T5 sequence (P43140 whole entry): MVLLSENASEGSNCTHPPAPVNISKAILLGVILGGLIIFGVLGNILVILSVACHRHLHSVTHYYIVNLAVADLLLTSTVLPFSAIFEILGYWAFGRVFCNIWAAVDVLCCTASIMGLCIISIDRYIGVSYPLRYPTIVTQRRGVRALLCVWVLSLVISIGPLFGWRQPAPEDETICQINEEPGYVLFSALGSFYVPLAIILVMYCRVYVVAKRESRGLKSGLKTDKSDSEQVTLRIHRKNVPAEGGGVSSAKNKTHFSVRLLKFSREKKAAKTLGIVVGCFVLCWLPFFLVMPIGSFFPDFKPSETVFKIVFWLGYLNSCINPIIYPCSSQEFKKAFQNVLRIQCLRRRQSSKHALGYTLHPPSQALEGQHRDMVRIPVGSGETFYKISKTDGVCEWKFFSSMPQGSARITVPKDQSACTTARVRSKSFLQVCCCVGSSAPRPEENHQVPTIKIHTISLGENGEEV

Histamine H1 receptor = Histamine H1 receptor (Rattus norvegicus, UniProt P31390)
Chain of Histamine H1 receptor (P31390 whole entry): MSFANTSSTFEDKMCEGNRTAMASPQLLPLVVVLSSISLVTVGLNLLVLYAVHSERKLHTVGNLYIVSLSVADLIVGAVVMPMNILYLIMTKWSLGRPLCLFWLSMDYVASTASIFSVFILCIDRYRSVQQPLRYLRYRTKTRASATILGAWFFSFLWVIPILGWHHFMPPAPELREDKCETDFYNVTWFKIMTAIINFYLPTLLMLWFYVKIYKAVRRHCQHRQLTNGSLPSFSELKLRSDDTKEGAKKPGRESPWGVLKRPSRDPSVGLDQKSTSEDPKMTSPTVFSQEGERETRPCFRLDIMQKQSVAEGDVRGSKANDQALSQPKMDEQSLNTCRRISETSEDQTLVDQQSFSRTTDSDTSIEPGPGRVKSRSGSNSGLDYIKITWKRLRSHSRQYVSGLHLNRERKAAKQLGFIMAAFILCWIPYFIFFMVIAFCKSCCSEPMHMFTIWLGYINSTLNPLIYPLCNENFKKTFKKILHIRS

[9] = target: 5-hydroxytryptamine receptor 1B (Rattus norvegicus, UniProt P28564)
[10] = target: 5-hydroxytryptamine receptor 2A (Rattus norvegicus, UniProt P14842)
Chain of 5-hydroxytryptamine receptor 2A (P14842 whole entry): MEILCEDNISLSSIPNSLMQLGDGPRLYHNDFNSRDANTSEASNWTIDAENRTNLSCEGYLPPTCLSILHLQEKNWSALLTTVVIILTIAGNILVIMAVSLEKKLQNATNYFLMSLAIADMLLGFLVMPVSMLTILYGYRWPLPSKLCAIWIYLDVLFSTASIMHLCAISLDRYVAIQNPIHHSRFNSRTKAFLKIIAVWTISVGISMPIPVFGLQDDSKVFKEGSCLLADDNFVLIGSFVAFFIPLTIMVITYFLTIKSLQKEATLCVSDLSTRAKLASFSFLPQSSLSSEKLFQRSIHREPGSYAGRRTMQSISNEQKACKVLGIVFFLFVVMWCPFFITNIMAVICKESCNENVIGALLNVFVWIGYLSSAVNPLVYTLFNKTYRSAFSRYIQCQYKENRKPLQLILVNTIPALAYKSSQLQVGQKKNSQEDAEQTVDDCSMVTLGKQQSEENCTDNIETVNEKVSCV

[11] = target: 5-hydroxytryptamine receptor 7 (Rattus norvegicus, UniProt P32305)
D(3) dopamine receptor = D(3) dopamine receptor (Homo sapiens, UniProt P35462)
Chain of D(3) dopamine receptor (P35462 as listed by the source): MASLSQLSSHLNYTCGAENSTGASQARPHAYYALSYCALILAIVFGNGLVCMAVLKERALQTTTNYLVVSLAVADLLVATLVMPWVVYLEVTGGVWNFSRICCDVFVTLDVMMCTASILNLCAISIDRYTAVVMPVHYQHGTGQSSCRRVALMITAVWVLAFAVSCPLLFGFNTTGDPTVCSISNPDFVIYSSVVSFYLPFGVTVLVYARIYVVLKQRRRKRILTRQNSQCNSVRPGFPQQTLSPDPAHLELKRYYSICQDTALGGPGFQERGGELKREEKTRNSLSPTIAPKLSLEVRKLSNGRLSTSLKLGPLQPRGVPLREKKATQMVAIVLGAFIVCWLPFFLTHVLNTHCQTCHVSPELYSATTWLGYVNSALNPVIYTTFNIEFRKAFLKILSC

D(2) dopamine receptor = D(2) dopamine receptor (Homo sapiens, UniProt P14416)
Chain of D(2) dopamine receptor (P14416 whole entry): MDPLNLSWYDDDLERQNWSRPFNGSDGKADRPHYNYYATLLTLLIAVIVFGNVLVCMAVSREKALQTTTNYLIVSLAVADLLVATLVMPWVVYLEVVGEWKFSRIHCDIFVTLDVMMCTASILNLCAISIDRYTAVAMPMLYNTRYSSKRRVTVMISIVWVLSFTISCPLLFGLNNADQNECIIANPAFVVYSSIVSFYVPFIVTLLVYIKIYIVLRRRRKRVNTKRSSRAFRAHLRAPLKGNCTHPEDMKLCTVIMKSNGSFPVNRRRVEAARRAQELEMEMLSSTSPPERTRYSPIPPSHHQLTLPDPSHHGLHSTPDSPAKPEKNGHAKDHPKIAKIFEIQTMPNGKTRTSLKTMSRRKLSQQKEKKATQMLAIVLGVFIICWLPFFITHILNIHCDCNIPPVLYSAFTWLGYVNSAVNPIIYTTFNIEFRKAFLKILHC

Histamine H2 receptor = Histamine H2 receptor (Cavia porcellus, UniProt P47747)
Chain of Histamine H2 receptor (P47747 whole entry): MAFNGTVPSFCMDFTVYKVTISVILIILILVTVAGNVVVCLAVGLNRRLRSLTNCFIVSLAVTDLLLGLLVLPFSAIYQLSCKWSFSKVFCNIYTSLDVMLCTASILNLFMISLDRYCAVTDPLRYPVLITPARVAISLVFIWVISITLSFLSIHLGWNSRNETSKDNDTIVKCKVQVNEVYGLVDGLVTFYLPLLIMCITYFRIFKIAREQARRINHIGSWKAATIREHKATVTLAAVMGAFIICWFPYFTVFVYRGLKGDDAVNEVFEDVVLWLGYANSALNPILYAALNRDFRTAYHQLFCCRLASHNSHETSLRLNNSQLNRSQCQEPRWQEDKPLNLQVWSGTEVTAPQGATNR

[12] = target: Nicotinic acetylcholine receptor (Rattus leucopus, UniProt Q62594)
Chain of Nicotinic acetylcholine receptor (Q62594 whole entry): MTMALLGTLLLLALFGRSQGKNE

Chain of Gamma-aminobutyric acid receptor subunit alpha-1 (P62813 whole entry): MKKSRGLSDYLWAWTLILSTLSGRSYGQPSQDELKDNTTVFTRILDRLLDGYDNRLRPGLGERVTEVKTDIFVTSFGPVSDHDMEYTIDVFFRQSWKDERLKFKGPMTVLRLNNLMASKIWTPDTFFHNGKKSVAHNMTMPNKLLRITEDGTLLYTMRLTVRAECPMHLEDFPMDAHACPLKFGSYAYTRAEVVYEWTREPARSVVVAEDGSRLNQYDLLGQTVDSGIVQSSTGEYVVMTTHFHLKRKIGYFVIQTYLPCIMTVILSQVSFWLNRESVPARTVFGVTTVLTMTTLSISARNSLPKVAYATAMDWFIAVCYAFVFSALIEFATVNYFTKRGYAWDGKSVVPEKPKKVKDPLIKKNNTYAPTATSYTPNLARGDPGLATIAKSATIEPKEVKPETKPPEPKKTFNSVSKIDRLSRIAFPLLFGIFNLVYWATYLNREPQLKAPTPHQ
Chain of Beta-2 adrenergic receptor (P10608 whole entry): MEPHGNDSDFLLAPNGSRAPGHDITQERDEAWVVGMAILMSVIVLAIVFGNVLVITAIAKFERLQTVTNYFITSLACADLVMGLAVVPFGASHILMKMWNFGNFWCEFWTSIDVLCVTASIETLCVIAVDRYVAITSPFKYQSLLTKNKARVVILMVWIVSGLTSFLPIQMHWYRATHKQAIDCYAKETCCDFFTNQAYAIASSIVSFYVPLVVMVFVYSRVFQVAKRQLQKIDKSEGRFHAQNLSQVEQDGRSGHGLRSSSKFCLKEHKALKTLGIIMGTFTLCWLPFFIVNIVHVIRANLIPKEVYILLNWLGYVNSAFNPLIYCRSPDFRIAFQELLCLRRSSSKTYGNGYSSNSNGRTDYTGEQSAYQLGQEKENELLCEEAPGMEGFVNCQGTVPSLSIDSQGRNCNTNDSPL

Ki [1] | Ki [2] | Ki (Galanin peptides) | Ki [3] | Ki (D(1A) dopamine receptor) | Ki [4] | Ki (Glutamate receptor 3) | Ki [5] | Ki [6] | Ki [7] | Ki [8] | Ki (Histamine H1 receptor) | Ki [9] | Ki [10] | Ki [11] | Ki (D(3) dopamine receptor) | Ki (D(2) dopamine receptor) | Ki (Histamine H2 receptor) | Ki [12] | SMILES
340 nM | > 10000 nM | 2600 nM | > 10000 nM | 1000 nM | 1000 nM | > 10000 nM | > 10000 nM | 0.59 nM | 1000 nM | 260 nM | > 10000 nM | 1000 nM | > 10000 nM | 1900 nM | 1000 nM | 1000 nM | > 10000 nM | > 10000 nM | NC(=O)c1ccc(F)c2c1CC(N(C1CCC1)C1CCC1)CO2 (stereo not drawn) [CAS_3055171]
1000 nM | > 10000 nM | 2600 nM | > 10000 nM | 1000 nM | 1000 nM | > 10000 nM | – | – | 1000 nM | – | > 10000 nM | – | 1100 nM | – | 67 nM | 79 nM | > 10000 nM | > 10000 nM | COc1ccccc1N1CCN(CCN(C(=O)C2CCCCC2)c2ccccn2)CC1
